Reference: ChEMBL document CHEMBL1681728, “An automated, polymer-assisted strategy for the preparation of urea and thiourea derivatives of 15-membered azalides as potential antimalarial chemotherapeutics” (Bioorg Med Chem, 2011)

Assays:
Format in all cases: functional, organism-based
Plasmodium falciparum [1] = experiment: Antimalarial activity against multidrug-resistant Plasmodium falciparum TM91C235 assessed as inhibition of [3H]hypoxanthine incorporation after 96 hrs by microtiter plate scintillation counting
Plasmodium falciparum [2] = experiment: Antimalarial activity against chloroquine-sensitive Plasmodium falciparum D6 assessed as inhibition of [3H]hypoxanthine incorporation after 96 hrs by microtiter plate scintillation counting
Plasmodium falciparum [3] = experiment: Antimalarial activity against chloroquine-,pyrimethamine-resistant Plasmodium falciparum W2 assessed as inhibition of [3H]hypoxanthine incorporation after 96 hrs by microtiter plate scintillation counting

What does the source list for CC[C@H]1OC(=O)[C@H](C)[C@@H](O[C@H]2C[C@@](C)(OC)[C@@H](O)[C@H](C)O2)[C@H](C)[C@@H](O[C@@H]2O[C@H](C)C[C@H](N(C)C)[C@H]2O)[C@](C)(O)C[C@@H](C)CN(CCCNC(=S)Nc2ccc(OCc3ccccc3)cc2)[C@H](C)[C@@H](O)[C@]1(C)O?
IC50 (Plasmodium falciparum [1]): 160 nM; IC50 (Plasmodium falciparum [2]): 249 nM; IC50 (Plasmodium falciparum [3]): 88.9 nM

Which IC50 (Plasmodium falciparum [1]) does the source give for CC[C@H]1OC(=O)[C@H](C)[C@@H](O[C@H]2C[C@@](C)(OC)[C@@H](O)[C@H](C)O2)[C@H](C)[C@@H](O[C@@H]2O[C@H](C)C[C@H](N(C)C)[C@H]2O)[C@](C)(O)C[C@@H](C)CN(CCCNC(=O)Nc2cccc(F)c2)[C@H](C)[C@@H](O)[C@]1(C)O here?
Its IC50 is 164 nM.

What about the IC50 (Plasmodium falciparum [2]) of the same molecule?
The IC50 was 580 nM.

And the IC50 (Plasmodium falciparum [3])?
Its IC50 is 285 nM.

For CC[C@H]1OC(=O)[C@H](C)[C@@H](O[C@H]2C[C@@](C)(OC)[C@@H](O)[C@H](C)O2)[C@H](C)[C@@H](O[C@@H]2O[C@H](C)C[C@H](N(C)C)[C@H]2O)[C@](C)(O)C[C@@H](C)CN(CCCNC(=S)Nc2ccc(C)cc2)[C@H](C)[C@@H](O)[C@]1(C)O, which IC50 (Plasmodium falciparum [1]) is on record?
Its IC50 is 164 nM.

What about the IC50 (Plasmodium falciparum [2]) of the same molecule?
The IC50 was 330 nM.

What about the IC50 (Plasmodium falciparum [3]) of the same molecule?
The IC50 was 71.3 nM.

CC[C@H]1OC(=O)[C@H](C)[C@@H](O[C@H]2C[C@@](C)(OC)[C@@H](O)[C@H](C)O2)[C@H](C)[C@@H](O[C@@H]2O[C@H](C)C[C@H](N(C)C)[C@H]2O)[C@](C)(O)C[C@@H](C)CN(CCCNC(=S)Nc2ccc3c(c2)OCO3)[C@H](C)[C@@H](O)[C@]1(C)O was tested. Which IC50 (Plasmodium falciparum [1]) did it give?
The IC50 was 173 nM.

And the IC50 (Plasmodium falciparum [2])?
Its IC50 is 329 nM.

What about the IC50 (Plasmodium falciparum [3]) of the same molecule?
The IC50 was 182 nM.

How did the IC50 (Plasmodium falciparum [1]) turn out when CC[C@H]1OC(=O)[C@H](C)[C@@H](O[C@H]2C[C@@](C)(OC)[C@@H](O)[C@H](C)O2)[C@H](C)[C@@H](O[C@@H]2O[C@H](C)C[C@H](N(C)C)[C@H]2O)[C@](C)(O)C[C@@H](C)CN(CCCNC(=S)Nc2ccc(Br)cc2)[C@H](C)[C@@H](O)[C@]1(C)O was run?
Its IC50 is 173 nM.

What about the IC50 (Plasmodium falciparum [2]) of the same molecule?
The IC50 was 261 nM.

And the IC50 (Plasmodium falciparum [3])?
The IC50 was 169 nM.

Which results are given for CC[C@H]1OC(=O)[C@H](C)[C@@H](O[C@H]2C[C@@](C)(OC)[C@@H](O)[C@H](C)O2)[C@H](C)[C@@H](O[C@@H]2O[C@H](C)C[C@H](N(C)C)[C@H]2O)[C@](C)(O)C[C@@H](C)CN(CCCNC(=S)Nc2ccc(N(C)C)c3ccccc23)[C@H](C)[C@@H](O)[C@]1(C)O?
IC50 (Plasmodium falciparum [1]): 180 nM; IC50 (Plasmodium falciparum [2]): 326 nM; IC50 (Plasmodium falciparum [3]): 175 nM

For CC[C@H]1OC(=O)[C@H](C)[C@@H](O[C@H]2C[C@@](C)(OC)[C@@H](O)[C@H](C)O2)[C@H](C)[C@@H](O[C@@H]2O[C@H](C)C[C@H](N(C)C)[C@H]2O)[C@](C)(O)C[C@@H](C)CN(CCCNC(=S)NC2CC3C=CC2C3)[C@H](C)[C@@H](O)[C@]1(C)O (some centres undefined), which IC50 (Plasmodium falciparum [1]) is on record?
The IC50 was 183 nM.

What about the IC50 (Plasmodium falciparum [2]) of the same molecule?
The IC50 was 302 nM.

And the IC50 (Plasmodium falciparum [3])?
Its IC50 is 173 nM.

Which results are given for CC[C@H]1OC(=O)[C@H](C)[C@@H](O[C@H]2C[C@@](C)(OC)[C@@H](O)[C@H](C)O2)[C@H](C)[C@@H](O[C@@H]2O[C@H](C)C[C@H](N(C)C)[C@H]2O)[C@](C)(O)C[C@@H](C)CN(CCCNC(=O)NC(C)(C)CC(C)(C)C)[C@H](C)[C@@H](O)[C@]1(C)O?
IC50 (Plasmodium falciparum [1]): 183 nM; IC50 (Plasmodium falciparum [2]): 269 nM; IC50 (Plasmodium falciparum [3]): 78.4 nM

Which results are given for CC[C@H]1OC(=O)[C@H](C)[C@@H](O[C@H]2C[C@@](C)(OC)[C@@H](O)[C@H](C)O2)[C@H](C)[C@@H](O[C@@H]2O[C@H](C)C[C@H](N(C)C)[C@H]2O)[C@](C)(O)C[C@@H](C)CN(CCCNC(=S)Nc2c(F)cccc2F)[C@H](C)[C@@H](O)[C@]1(C)O?
IC50 (Plasmodium falciparum [1]): 188 nM; IC50 (Plasmodium falciparum [2]): 509 nM; IC50 (Plasmodium falciparum [3]): 86.3 nM

What does the source list for CC[C@H]1OC(=O)[C@H](C)[C@@H](O[C@H]2C[C@@](C)(OC)[C@@H](O)[C@H](C)O2)[C@H](C)[C@@H](O[C@@H]2O[C@H](C)C[C@H](N(C)C)[C@H]2O)[C@](C)(O)C[C@@H](C)CN(CCCNC(=O)Nc2ccc(C#N)cc2)[C@H](C)[C@@H](O)[C@]1(C)O?
IC50 (Plasmodium falciparum [1]): 206 nM; IC50 (Plasmodium falciparum [2]): 386 nM; IC50 (Plasmodium falciparum [3]): 98.3 nM

CC[C@H]1OC(=O)[C@H](C)[C@@H](O[C@H]2C[C@@](C)(OC)[C@@H](O)[C@H](C)O2)[C@H](C)[C@@H](O[C@@H]2O[C@H](C)C[C@H](N(C)C)[C@H]2O)[C@](C)(O)C[C@@H](C)CN(CCCNC(=S)Nc2ccc(OC)cc2)[C@H](C)[C@@H](O)[C@]1(C)O was tested. Which IC50 (Plasmodium falciparum [1]) did it give?
The IC50 was 209 nM.

And the IC50 (Plasmodium falciparum [2])?
Its IC50 is 480 nM.

And the IC50 (Plasmodium falciparum [3])?
The IC50 was 77 nM.

Which IC50 (Plasmodium falciparum [1]) does the source give for CC[C@H]1OC(=O)[C@H](C)[C@@H](O[C@H]2C[C@@](C)(OC)[C@@H](O)[C@H](C)O2)[C@H](C)[C@@H](O[C@@H]2O[C@H](C)C[C@H](N(C)C)[C@H]2O)[C@](C)(O)C[C@@H](C)CN(CCCNC(=S)NCc2ccc3c(c2)OCO3)[C@H](C)[C@@H](O)[C@]1(C)O here?
The IC50 was 216 nM.

And the IC50 (Plasmodium falciparum [2])?
Its IC50 is 319 nM.

What about the IC50 (Plasmodium falciparum [3]) of the same molecule?
Its IC50 is 137 nM.

For CC[C@H]1OC(=O)[C@H](C)[C@@H](O[C@H]2C[C@@](C)(OC)[C@@H](O)[C@H](C)O2)[C@H](C)[C@@H](O[C@@H]2O[C@H](C)C[C@H](N(C)C)[C@H]2O)[C@](C)(O)C[C@@H](C)CN(CCCNC(=O)Nc2cc(F)cc3c2OCOC3)[C@H](C)[C@@H](O)[C@]1(C)O, which IC50 (Plasmodium falciparum [1]) is on record?
The IC50 was 220 nM.

And the IC50 (Plasmodium falciparum [2])?
Its IC50 is 284 nM.

And the IC50 (Plasmodium falciparum [3])?
Its IC50 is 306 nM.
